Assay results published in patent US6921541B2, “Formulations and methods for providing prolonged local anesthesia” (Euro-Celtique S.A., priority 1995, dated 2005).
Like-named read-outs stand apart in the source and are kept apart here.

Experiments:
[1] = immediate release vasoconstrictor; at best; cited from earlier work

## COc1cc2c(c(OC)c1OC)-c1ccc(OC)c(=O)cc1[C@@H](NC(C)=O)CC2 [Colchicine]
Rat sciatic nerve; 0.1 % additive conc., Placebo (no bupivacaine)
  Duration Anesthesia As Percent of Control: 0% of Control
Rat sciatic nerve; 10 % additive conc. in carrier vehicle, LAB 150 mg/kg
  Duration Anesthesia As Percent of Control (toxicity noted): toxic
Rat sciatic nerve; 10 % additive conc., no LAB
  Duration Anesthesia As Percent of Control: 0% of Control

## CNC[C@H](O)c1ccc(O)c(O)c1 [epinephrine]
[1]
  prolongation of local anesthetic activity: about 1 hour
